Molecules are shown by their SMILES. ≈ marks a conversion by molar mass, not a printed value. Where only a bound is given, the exact number is not on record here.

This passage reports IC50 and EC50 results from ChEMBL document CHEMBL1130819, “Synthesis and biological evaluation of 1,2-disubstituted carbonucleosides of 2-amino-6-substituted purine and 8-azapurine” (Bioorg Med Chem Lett, 1998).

Experiment [1] has as its system CCRF-CEM. Nature of the experiment: Antitumor activity was evaluated against CEM cell line. Type of experiment: functional, cell-based. To be noted: Homo sapiens.
The test system of experiment [2] is L1210. Nature of the experiment: Antitumor activity was evaluated against L1210 cell line. Type of experiment: functional, cell-based. To be noted: Mus musculus.
The test system of experiment [3] is MOLT-4. Nature of the experiment: Antitumor activity was evaluated against Molt4/C8 cell line. The format is functional, cell-based. The conditions noted are these: Homo sapiens.
In experiment [4] the test system is Human alphaherpesvirus 3. Nature of the experiment: Antiviral activity against Varicella-Zoster virus(OKA strain). The format is functional, organism-based.
Experiment [5] concerns Human alphaherpesvirus 3. Nature of the experiment: Antiviral activity against Varicella-Zoster virus(YS/R strain). Type of experiment: functional, organism-based.
Experiment [6] relates to Human alphaherpesvirus 3. Nature of the experiment: Antiviral activity against Varicella-Zoster virus (07/1strain). The format is functional, organism-based.

Turning to `Nc1nc(O)c2ncn([C@H]3CCC[C@H]3CO)c2n1`, the IC50 in experiment [1], in experiment [2] and in experiment [3] was more than 200 µM each time.
Take `Nc1nc(N)c2nnn([C@H]3CCC[C@H]3CO)c2n1`: the EC50 in experiment [4] turned out to be 32 µg/mL (≈ 128 µM); in experiment [5] it was 50 µg/mL (≈ 201 µM); in experiment [6] it was 45 µg/mL (≈ 181 µM). For the same compound, the half-inhibitory concentration (IC50) in experiment [1] came out at 90.5 µM; in experiment [2] it was 77.2 µM; in experiment [3], 120 µM.
Turning to `Nc1nc(N)c2ncn([C@H]3CCC[C@H]3CO)c2n1`, the IC50 in experiment [1] turned out to be 90 µM; in experiment [2], 113 µM; in experiment [3], 147 µM. In experiment [5], this compound gave an EC50 of 37 µg/mL (≈ 149 µM).
On to `Nc1nc(O)c2nnn([C@H]3CCC[C@H]3CO)c2n1`, for which the half-inhibitory concentration (IC50) in experiment [1] was found to be 86.7 µM; in experiment [2], 80 µM; in experiment [3], 86 µM.
For `Nc1nc(Cl)c2ncn([C@H]3CCC[C@H]3CO)c2n1`, the figures for the concentration for half-maximal inhibition (IC50) in experiment [1], in experiment [2] and in experiment [3] were 83 µM, 71.4 µM and 49.1 µM, respectively.
On to `Nc1nc(Cl)c2nnn([C@H]3CCC[C@H]3CO)c2n1`, for which the values for the 50% inhibitory concentration (IC50) in experiment [1], in experiment [2] and in experiment [3] were 53 µM, 71 µM and 75.3 µM, respectively.
